According to patent publication US20230226228A1, “POSITRON IMAGING TOMOGRAPHY IMAGING AGENT COMPOSITION AND METHOD FOR DETECTION OF BACTERIAL INFECTION” (priority 2020, published 2023):

Key:
[1] = type: in vitro ADME, Sprague-Dawley rat; settings: rat serum, 85 min incubation
Protocol: FIG. 6. In vitro metabolic stability of 2-[^18F]F-ENB in rat and human plasma. (a-d) HPLC traces of metabolites of 2-[^18F]F-ENB incubated with rat plasma at different time points (2 min, 10 min, 30 min, 85 min) and spiked with cold standards.
2-[^18F]F-ENB (600 μCi) was incubated with Sprague-Dawley rat plasma (5.0 mL) at 37° C. Subsequently, 0.4 mL aliquots of the plasma were taken 2, 10, 30, and 85 min after addition of the tracer, and 0.6 mL of MeCN was added to quench the metabolism. The mixture was centrifuged at 13 400 rpm for 10 min to remove proteins, and both the supernatant and the protein pellet were analyzed by gamma counting to calculate the extraction efficiency. […] The radioactive fractions corresponding to each cold standard were collected and radioactivity was quantified using a gamma counter from which the percentage of each metabolite was calculated.

S. aureus Xen29 [2] = experiment: PET/CT imaging of rat triceps infection / sterile inflammation model (S. aureus Xen29); type: in vivo, Sprague-Dawley rats; settings: 180 min post tracer injection
Protocol: FIG. 5. PET/CT imaging of rats infected in the right triceps with the bioluminescent Xen29 strain of S. aureus. (A) Experimental design. (B) 2-[^18F]F-ENB-derived radioactivity accumulates in the infected triceps (red arrow) but not the inflamed triceps (yellow arrow) at 3 h post tracer administration.
FIG. 8. PET/CT imaging of 2-[^18F]F-NB in a rat model of S. aureus Xen29 infection. (A) Radiosynthesis of 2-[^18F]F-NB. (i) [^18F]potassium fluoride, Kryptofix222, potassium carbonate, dimethyl sulfoxide, r.t., 10 min; (ii) 2 M potassium hydroxide in H2O, 105° C., 10 min; Overall decay-corrected radiochemical yield: 26% (n=1).
FIG. 10. Time activity curve (TAC) in infected triceps, inflamed triceps and blood and biodistribution of 2-[^18F]F-NB in major organs. (a) The right triceps of the rats were infected with S. aureus Xen 29 and the left triceps were injected with a 10-fold higher burden of heat-killed S. aureus to induce sterile inflammation. The rats were scanned by PET/CT for 120 min (rats with sterile inflammation in the left triceps) immediately starting from tracer administration. The PET scan was separated into ten frames (1-min) and twenty-two frames (5-min). TACs of infected triceps (blue), inflamed triceps (grey) and blood (left heart ventricle, red) are shown. Data represented as mean with standard error of the mean (n=4). (b) Time-dependent accumulation of 2-[^18F]F-NB in infected and inflamed triceps compared to the blood (left heart ventricle). Data are presented as the mean and standard error of the mean (n=4). […]
S. aureus (Newman or Xen29) was cultured overnight by inoculating 5 μL of bacteria from a glycerol stock into 10 mL of fresh cation-adjusted Mueller-Hinton (CAMH) broth or tryptic soy broth (TSB). […] After imaging, the infected triceps were collected, homogenized in PBS using a hand-held homogenizer, and the bacterial burden at the time of imaging was determined by plating the muscle tissues onto solid MH medium. After overnight incubation at 37° C., CFUs were quantified by enumeration. […]

[3] = In vivo metabolite analysis in blood and urine of healthy rats (radio-HPLC); set-up: species or system Sprague-Dawley rats
Protocol: FIG. 7. Analysis of metabolites in the plasma and urine of healthy rats after intravenous injection (IV) of 2-[^18F]F-ENB. After IV administration of 2-[^18F]F-ENB, the animals were sacrificed at each time point (n=3 rats) and the blood and urine samples were collected for radio-HPLC analysis. […] The percent of each metabolite in blood (B) and urine (C) is shown.
2-[^18F]F-ENB (1 mCi) was injected via the tail vein into healthy female Sprague-Dawley rats (10 weeks old, Charles River). […] The mixture was centrifuged at 13 400 rpm for 5 min to remove the protein, and the supernatant and protein pellet were analyzed by gamma counter to determine the efficiency of extraction. […] The radioactive fractions corresponding to each cold standard were collected and analyzed using a gamma counter from which the percentage of each metabolite was calculated (n=3).
Analysis of the radioactive metabolites in the urine was performed using a similar procedure from samples obtained from the bladder 30 and 60 min after tracer injection. The urine was diluted with 45% MeCN/H2O, centrifuged at 13 400 rpm for 5 min and spiked with cold standards for radio-HPLC analysis.

S. aureus Xen29 [4] = experiment: PET imaging of infective endocarditis rat model; type: in vivo, Sprague-Dawley rats; settings: day-3 post infection, 60 min and 120 min post tracer injection
Source text: Female Sprague-Dawley rats (weight, ˜200 g, Charles River) were maintained in an anesthetized state with an isofluorane-oxygen gas mixture during surgery. A sterile polyethylene catheter was placed and positioned in the left ventricle through a small incision via the retrograde transcarotid artery approach.
The catheter was left in place throughout the experiments. At 24-hour post-catheterization, the rats were infected intravenously through the tail vein with an inoculum of S. aureus Xen29 of 10^6 CFU in 0.5 mL sterile saline. The animals were imaged for bioluminescence signal in the region of the hearts with IVIS daily after infection. The optimal BLI signal over the heart area was determined to be day-3 post inoculation (FIG. 15A and FIG. 16A).

S. aureus Xen36 = experiment: PET imaging of prosthetic joint infection (PJI) mouse model; type: in vivo, Balb/c mice; settings: day-2 post infection, 60 min and 120 min post tracer injection
Protocol: Balb/c mice was anesthetized by inhalation of a mixture of isofluorane and oxygen. A medical-grade stainless steel Kirschner wire was inserted into the distal part of the femur which has been exposed by dislocation of the patella and reamed with a 25-gauge needle. 2 μL of S. aureus Xen36 (4 log 10 CFU) will be inoculated into the knee joint and onto the wire before the surgical incision is closed with absorbable sutures. The correct position of the wire in the canal was performed with X-ray scan. The animals were imaged for bioluminescence signal in the region of the surgical joint with IVIS daily after infection. The optimal BLI signal over the joint area was determined to be day-2 post inoculation (FIG. 20A).

CCOC(=O)c1ccc([N+](=O)[O-])cc1[18F] [2-[^18F]F-ENB, Ethyl 2-[^18F]F-4-nitrobenzoate]
stability of the nitro group [1]: the nitro group was unaffected
localisation of radioactive signal (S. aureus Xen29 [2]): predominantly observed in the infected triceps
radioactive components in blood after IV administration ([3]; blood at 5, 30 and 60 min): 2-[^18F]F-NB was the predominant radioactive component at each time point
radioactive components in urine after IV administration ([3]; urine at 30 and 60 min post injection): the majority of the radioactive signal could be attributed to 2-[^18F]F-NB
PET signal over the heart region (S. aureus Xen29 [4]): a robust radioactive signal was detected over the heart region
PET signal over the joint region (S. aureus Xen36): a robust radioactive signal was detected over the joint region
